Test results published in US20230381163A1, “DABIGATRAN COMPOSITIONS AND METHODS OF TREATING AGE-RELATED MACULAR DEGENERATION” (The United States Government As Represented By The …, priority 2022, published 2023).

Columns and labels:
[1] = tested on: AMD diagnosis in Medicare patients; test: MarketScan retrospective analysis of AMD diagnosis in dabigatran-exposed vs matched control Medicare patients; format: in vivo, human
Excerpt: Material and methods. MarketScan analysis: Population. A total of 41,860 dabigatran-exposed and 41,860 non-exposed controls, for a total of 83,720 Medicare patients were extracted from MarketScan® data from 2010-2015 and used in the analysis. Patients with an inpatient or outpatient record with a diagnosis of AMD (wet or dry) for the baseline period were excluded from inclusion in the data set. Patients who filled at least one prescription of dabigatran during the 2011-2012 exposure period were included in the dabigatran group. The date of the first filled prescription was designated as the Index Date. […] The first patient record date in randomly selected records from 2011 or 2012 was chosen as the Index Date for control group patients. Patients with <90 days of insurance coverage in the baseline period or <120 days of coverage in the study (exposure) period were excluded from the final cohort. The exposed and control patients were matched by age, sex, state of residence, Index Date, days in baseline period, and days in study period using 1:1 propensity score mating with a greedy algorithm and a caliper distance of 0.2.
Survival and Statistical Analysis. Survival analysis was used (Schnabolk et al., 2019) to show differences in time until AMD diagnosis among dabigatran users and control subjects using the […] procedure. AMD diagnoses were identified using ICD-9 codes 362.5 (unspecified macular degeneration), 362.51 (dry AMD), and 362.52 (wet AMD). A period of ˜5 years (from Jul. 1, 2010, to Dec. 31, 2015) was used for this analysis, and preexisting AMD diagnosis was ruled out by requiring that the subjects be AMD free over the first ˜600 days (designated as baseline days or Base Days). Data on the matched control and dabigatran population were analyzed using multivariable logistic and Cox regression. Specifically, the odds of being diagnosed with AMD during the follow-up time, controlling for days of dabigatran exposure, and the proportional hazard rates of obtaining an AMD diagnosis in the dabigatran or control population as well as any baseline differences in demographics or comorbidities was compared (Charlson or Elixhouser diagnoses).
Results. Association between Dabigatran Use and AMD Risk. The patient population consisted of 83,720 Medicare patients extracted from MarketScan® data from 2010-2015 as described herein, with 41,860 dabigatran-exposed and 41,860 non-exposed controls. The controls were matched on 33 baseline variables, including demographics and clinical characteristics (Schnabolk, G., et al. (2019). Invest Ophthalmol Vis Sci 60, 3520-3526) (Table 1).

[2] = tested on: VEGF secretion in ARPE-19 cells; test: VEGF secretion into apical supernatant of ARPE-19 monolayers (ELISA); format: cell-based, human; settings: dabigatran, thrombin-treated cells
Method: Cell culture experiments: Cells. […] Frontiers in Aging Neuroscience 9).
VEGF ELISA. VEGF in the supernatant was measured using the Quantikine® Human VEGF Immunoassay (R & D System) according to the manufacturer's protocol. In brief, 200 μl of standard/sample was mixed with 50 μl of assay diluent and added to the plate precoated with the capture antibody. After washing, 200 μl of the VEGF detection antibody (polyclonal antibody specific for human VEGF conjugated to horseradish peroxidase) was added, followed by freshly prepared substrate reagents (stabilized hydrogen peroxide and tetramethylbenzidine). The reaction was terminated using 50 μl of stop solution and absorbance was measured at λ1 450 nm with wavelength correction λ2 at 540 nm. VEGF concentration of samples were calculated comparing the absorbance with the standards and converted into fold change considering the serum-free condition as 1 in the scale.

[3] = tested on: complement component C3; test: Thrombin-mediated C3 cleavage in apical supernatants of ARPE-19 cells (western blot); format: cell-based, human; settings: 10 μM
Method: Second, it was tested whether thrombin can cleave complement components (Huber-Lang, M., et al. (2006). Nat Med 12, 682-687; and Krisinger, M. J., et al. (2012). Blood 120, 1717-1725), specifically C3 and C5, producing cleavage products potentially different from those produced by classical convertases. To test the effects of thrombin on complement cleavage, the apical supernatants of treated ARPE-19 cell monolayers were analyzed by western blotting. Cleavage of C3α was evaluated using an antibody specific for C3a (FIG. 5A, left-hand blot). The C3a antibody detected C3, the C3α band as well as other fragments containing C3a. Thrombin caused a concentration dependent cleavage of complement component C3 (˜190 kDa), caused reduction of the 120 kDa C3a band and generation of a new 80 kDa fragment. Fragments at 32 kDa and 9-10 kDa with higher doses of thrombin treatment (FIG. 5A, 10 U/mL) were also observed. The 9-10 kDa band ran at the same molecular weight as purified C3a (FIG. 11). The reduction of the 120 kDa fragment was correlated with the generation of the 80 kDa fragment (FIG. 5B). The loss of the 120 kDa fragment was prevented by either dabigatran (10 μM) or the C3 inhibitor compstatin (100 μM), which inhibits complement both on cell membranes as well as in fluid phase, but not by TT30 (10 μM), which is an inhibitor that prevents membrane-bound AP activation (FIG. 5C). […]

[4] = dabigatran chow, ˜10 mg/kg bodyweight per day; cited from earlier work
[5] = tested on: CTGF expression in ARPE-19 cells; test: Thrombin-induced CTGF expression in ARPE-19 cell lysates (western blot); settings: dabigatran 10 μM, thrombin 1 U/mL
Method: Cell culture experiments: Cells. Human ARPE-19 (ATCC® CRL-2302™; American Type Culture Collection, Manassas VA) cells were cultured in DMEM cell culture media (Gibco/ThermoFisher Scientific) containing high glucose DMEM with D-glucose (4.5 g/L), L-glutamine, sodium pyruvate (110 mg/L), Penicillin and Streptomycin (1×) and 10% of FBS. Cells (<passage 10 after purchase) were expanded in T75 cell culture flasks at 37° C., in the presence of 5% CO2. Confluent cells were trypsinized with 0.05% trypsin (Gibco), and equal numbers of cells were seeded on 6-well transwell filters/plate (Costar). […] Integrity of the cell monolayer was assessed by Transepithelial resistance (TER) measurements using an EVOM volt-ohmmeter (World Precision Instruments) four weeks after plating. RPE monolayers with a stable TER repeatedly measured as ˜40-45 S2 cm 2 were used for these experiments.
Treatments. Prior to each experiment, the cell monolayer was washed with serum-free medium (SFM) and maintained in SFM for 24 hours. […] Treatments were performed on the apical side of the transwell membrane, which represents the retinal side of the RPE in vivo. Some of the cells were treated with thrombin (EMD Millipore Corp), complement components C3a, C5a (Complement Technology), thrombin agonist PAR1-AP (Sigma-Aldrich; amino acid sequence SFLLRN (SEQ ID NO: 1)), thrombin inhibitor dabigatran etexilate (Sigma-Aldrich), C3 inhibitor compstatin (R&D Systems), AP inhibitor TT30 (Alexion Therapeutics), a protease inhibitor alpha1-antitrypsin (Sigma-Aldrich), and the thrombin receptor proteinase activated receptor 1 inhibitor SCH 79797 (Sigma-Aldrich). Treatments were performed 60 min prior to the addition of thrombin. Cell culture supernatant and lysate were collected after specific time points or after 24 hrs of treatment and stored at −20° C. for later use.
Western blotting. […] Cell lysates were collected in RIPA cell lysis buffer containing 150 mM NaCl, 1.0% IGEPAL® CA-630, 0.5% sodium deoxycholate, 0.1% SDS, 50 mM Tris (pH 8.0) (Sigma-Aldrich) in presence of 1×protease inhibitor (Sigma-Aldrich). Equal amount of each samples were loaded on 4-20% Criterion™ TGX™ precast gels (Bio-Rad Laboratories, Inc.) (Annamalai, B., et al. (2020). Invest Ophthalmol Vis Sci 61, 45). Proteins were transferred to a nitrocellulose membrane and incubated in primary antibody followed by appropriate secondary antibodies coupled to peroxidase, followed by band development and detection using Clarity™ Western ECL blotting substrate (Bio-Rad Laboratories, Inc.) and chemiluminescent detection. Protein bands were scanned and densities quantified using ImageJ software. The following antibodies were used: C3a (1:1000; Complement Technology), C5a (1:1000; Abcam), connective tissue growth factor/CTGF (1:1000; Abcam), C3d anti-C3d (clone 11, 1:1000; generation of the antibody is described in (Thurman, J. M., et al. (2013). J Clin Invest 123, 2218-2230)), VEGF (1:1000, Santa Cruz Biotechnology, Inc.), β-actin (1:2000; Cell Signaling Technology) and concentrations selected based on the data sheet recommendations.
ARPE-19 cell monolayers were treated with thrombin (0.5-10 U/ml) and cell lysates were collected and analyzed for CTGF levels at 4 hrs post treatment by western blotting.

[6] = tested on: C3d and C5b-9 deposition on ARPE-19 cells; test: C3d and MAC (C5b-9) deposition on ARPE-19 cell surfaces (immunofluorescence); settings: 10 μM, compared with thrombin-treated cells (20 U/mL)
Method: ARPE-19 cells were grown on transwell membranes in 6 well plates (Thurman, J. M., et al. (2009). J Biol Chem 284, 16939-16947), treated with thrombin and inhibitors, and fixed in 4% paraformaldehyde for 15 min at room temperature. Primary antibodies against C5b-9 (1:200, Abcam) and C3d (1:100) (Thurman, J. M., et al. (2013). J Clin Invest 123, 2218-2230) were diluted in blocking buffer (10% normal goat serum, 3% BSA, 0.4% Triton X-100 in PBS) and cells were incubated for overnight at 4° C., followed by washes and incubation with goat anti-rabbit Alexa Fluor® 568—conjugated IgG or donkey anti-goat Alexa Fluor® 488-conjugated secondary antibodies (1:500; Thermo Fisher Scientific), respectively. Nuclei were identified with DAPI (Sigma-Aldrich). Transwell membranes were covered with aqua-mount mounting media (Thermo Scientific), cover slipped and photographed (Olympus 1X73 Research Inverted Microscope equipped with cellSens imaging software).
First, it was tested whether thrombin results in deposition of C3d and the assembly of MAC on ARPE-19 cell surfaces. ARPE-19 cell monolayers were treated apically with thrombin and deposition of MAC (C5b-9; red) and C3d (green) were examined by immunofluorescence staining (FIG. 4A).

[7] = 1-2 years exposure to dabigatran
[8] = 2+ years exposure to dabigatran

Compound: CCCCCCOC(=O)NC(=N)c1ccc(NCc2nc3cc(C(=O)N(CCC(=O)OCC)c4ccccn4)ccc3n2C)cc1
- % AMD per study year [1, 7]: 3.25%
- % patients with a wet AMD diagnosis [1, 7]: 0.90%
- % patients with an AMD diagnosis [1, 7]: 10.11%
- % wet AMD per study year [1, 7]: 0.26%
- risk of AMD by exposure strata (odds ratio vs controls) ([1]; 1-2 years of dabigatran): 0.64
- % AMD per study year [1, 8]: 3.00%
- % patients with a wet AMD diagnosis [1, 8]: 1.35%
- % patients with an AMD diagnosis [1, 8]: 12.26%
- % wet AMD per study year [1, 8]: 0.29%
- risk of AMD by exposure strata (odds ratio vs controls) ([1]; 2+ years of dabigatran): 0.64
- % AMD per study year ([1]; <1 year exposure to dabigatran): 3.04%
- % patients with a wet AMD diagnosis ([1]; <1 year exposure to dabigatran): 0.75%
- % patients with an AMD diagnosis ([1]; <1 year exposure to dabigatran): 7.51%
- % wet AMD per study year ([1]; <1 year exposure to dabigatran): 0.28%
- risk of AMD by exposure strata (odds ratio vs controls) ([1]; <1 year of dabigatran): 0.52
- % AMD per study year ([1]; all dabigatran users): 3.07%
- % patients with a wet AMD diagnosis ([1]; all dabigatran users): 0.91%
- % patients with an AMD diagnosis ([1]; all dabigatran users): 9.1%
- % wet AMD per study year ([1]; all dabigatran users): 0.28%
- % patients with an AMD diagnosis ([1]; all dabigatran users, listed as Dabigatran): 9.10%
- reduction of percent AMD per study year ([1]; dabigatran vs control group): ~35%
- reduction of percent patients with a wet AMD diagnosis ([1]; dabigatran vs control group): ~60%
- hazard ratio, time to first recorded diagnosis of unspecified AMD ([1]; dabigatran vs matched controls, P<0.0001): 0.63
- Days to AMD, Mean ([1]; dabigatran-exposed subjects, n 3810): 562 days
- Wet Days, Mean ([1]; dabigatran-exposed subjects, n 38399): 1047 days
- Dry Days, Mean ([1]; dabigatran-exposed subjects, n 41511): 1011 days
- AMD Days, Mean ([1]; dabigatran-exposed subjects, n 41860): 1007 days
- odds ratio (OR) of AMD ([1]; multivariable logistic regression controlling for age, sex, days in study, CI 0.55-0.61): 0.58
- reduction of thrombin-induced VEGF content [2]: ~35%
- effect on thrombin-mediated loss of the 120 kDa C3 fragment [3]: prevented
- blood plasma concentration of dabigatran [4]: 372 ± 30 ng/mL
- elongation of coagulation times [4]: 3 fold
- reduction of thrombin-induced CTGF expression [5]: 3.2 fold
- reduction of C5b-9 deposition [6]: ~50%
- reduction of C3d deposition [6]: ~60%
